Experimental data reported in US20080226587A1, “METHODS AND COMPOSITIONS FOR IMMUNOMODULATION” (priority 2006, published 2008).

Tested on: DDM-reactive J.RT3/CD8-2 cells
Experiment: T cell stimulation by DDM after proteinase K or pronase treatment
Type: cell-based
Conditions: 4 hours at 40° C.
Source text: FIG. 4B is a graph depicting the proliferative response of DDM-reactive J.RT3/CD8-2 cells stimulated in the presence of mock treated DDM, DDM treated with proteinase K, DDM treated with pronase, or no antigen.
The Nex antigen is the second peptidic antigen shown to be presented by CD1. The other one, DDM, is presented by CD1a. Although processing of proteins for presentation on MHC Class I and Class II molecules is well characterized, little is known about processing of CD1-presented peptides. […] DDM has no such cleavage sites for proteases. To examine the protease sensitivity of Nex, Nex and DDM were treated with non-specific proteases and T cell stimulation by each antigen was examined.
Pronase is a mixture of endopeptidases and exopeptidases (carboxypeptidases and aminopeptidases) which digests denatured and native proteins into individual amino acids. Proteinase K is an endopeptidase with a preference for cleavage between an aliphatic, aromatic, or hydrophobic and any other amino acid, however, it will digest any peptidic bond if added in excess and over long incubation periods. […]
To test whether treated Nex mixtures were toxic to T cells, T cell stimulation was measured in the presence of a high concentration (10 μg/ml) of treated Nex and a suboptimal concentration of untreated Nex. […]

didehydroxymycobactin [DDM]
ability to stimulate T cell proliferation after protease treatment: did not diminish
